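Interpolation was linear, between the two tested concentrations surrounding the appropriate level; five concentrations were tested over 48 hours in 96-well plates. The concentration for 50% growth inhibition is given as GI50.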 The source made the active and inactive calls. Rule as the data show it: active = GI50 up to about 1.1 µM and inactive = higher. Square brackets hold non-standard residues; d marks the D form. Peptide text beside a SMILES is read from it. Ac5c = NC1(C(=O)O)CCCC1
How the values were obtained:
Test in all cases: NCI-60 cell line screen, 48 h
[1] = tested on: A498
[2] = tested on: CCRF-CEM
[3] = tested on: COLO 205
[4] = tested on: DU-145
[5] = tested on: EKVX
[6] = tested on: HCC 2998
[7] = tested on: HCT-116
[8] = tested on: HL-60
[9] = tested on: KM12
[10] = tested on: NCI-H460
[11] = tested on: NCI-H522
[12] = tested on: OVCAR-4
[13] = tested on: PC-3
[14] = tested on: SK-MEL-5
[15] = tested on: SR
[16] = tested on: TK-10
[17] = tested on: UACC-257
[18] = tested on: UACC-62
[19] = tested on: CAKI-1
[20] = tested on: SNB-19

Measured: GI50

Cc1c(CNc2ccc(C(=O)NC(CC(=O)O)C(=O)O)cc2)ccc2nc(N)nc(N)c12 (configuration not stated)
active: [1] 0.219 µM | [2] < 0.01 µM | [4] < 0.01 µM | [6] < 0.01 µM | [7] < 0.01 µM | [8] < 0.01 µM | [9] 0.0743 µM | [10] < 0.01 µM | [11] < 0.018 µM | [14] 0.021 µM | [15] < 0.0296 µM | [17] 0.605 µM | [18] < 0.01 µM
inactive: [3] > 9.42 µM | [5] > 100 µM | [12] > 100 µM | [13] 13.4 µM | [16] 1.86 µM

C=CCSc1nc2ccccc2c(=O)n1Cc1ccco1
inactive: [1] > 100 µM | [19] > 100 µM | [3] > 100 µM | [4] > 100 µM | [5] > 100 µM | [6] > 100 µM | [7] 82 µM | [9] > 100 µM | [10] 73.5 µM | [11] 61.8 µM | [12] 80.5 µM | [13] > 100 µM | [14] 45 µM | [20] > 100 µM | [15] 47 µM | [16] > 100 µM | [17] > 100 µM | [18] > 100 µM

COc1ccc(C23OCC(Cc4cc(OC)c(OC)cc42)C3CO)cc1OC (configuration not stated)
inactive: [1] > 100 µM | [19] > 100 µM | [3] > 100 µM | [4] > 100 µM | [5] > 100 µM | [6] > 100 µM | [7] > 100 µM | [8] > 100 µM | [9] > 100 µM | [10] > 100 µM | [11] > 100 µM | [12] > 100 µM | [13] > 100 µM | [14] > 100 µM | [20] > 100 µM | [15] 29.8 µM | [16] > 100 µM | [18] > 100 µM

CCCC1NC(=O)C(CC(C)C)NC(=O)c2cccc(n2)C(=O)NC(CC(C)C)C(=O)NC(CCC)C(=O)NC(C(=O)OC)CCCCNC1=O (configuration not stated)
inactive: [1] > 100 µM | [19] > 100 µM | [2] 15.6 µM | [3] 40.6 µM | [4] > 100 µM | [5] 20.3 µM | [6] 11.1 µM | [7] 34 µM | [9] 27.3 µM | [10] > 100 µM | [12] 38.8 µM | [13] 25.3 µM | [14] > 100 µM | [20] 53.5 µM | [15] 29 µM | [16] 57.8 µM | [17] 54.5 µM | [18] 21.2 µM

C(=N\c1ccc(-c2nc3ccccc3[nH]2)cc1)/c1ccc[nH]1
inactive: [1] 69.5 µM | [19] > 100 µM | [2] 11.4 µM | [3] 41.3 µM | [4] > 100 µM | [5] > 100 µM | [6] 29.5 µM | [7] 50.9 µM | [8] 1.91 µM | [9] 44.6 µM | [11] 35 µM | [12] 54.2 µM | [13] 70.8 µM | [14] 30.3 µM | [15] 33.1 µM | [16] > 100 µM | [17] > 100 µM | [18] 55.3 µM

COc1cccc(C=C2N=C(C)N(n3c(-c4ccccc4)nc4ccccc4c3=O)C2=O)c1
inactive: [1] > 100 µM | [19] > 100 µM | [2] 57.5 µM | [3] > 100 µM | [4] > 100 µM | [5] > 100 µM | [6] > 100 µM | [7] > 100 µM | [8] > 100 µM | [9] > 100 µM | [10] > 100 µM | [11] > 100 µM | [13] > 100 µM | [14] > 100 µM | [20] > 100 µM | [15] 64.9 µM | [16] > 100 µM | [17] > 100 µM | [18] > 100 µM

Cc1cn(CC2=NCC(C)(C)N2)c(=O)[nH]c1=O
active: [2] < 0.01 µM
inactive: [1] > 100 µM | [3] > 100 µM | [4] > 100 µM | [5] > 100 µM | [6] > 100 µM | [7] > 100 µM | [10] > 100 µM | [11] > 100 µM | [13] > 100 µM | [14] > 100 µM | [20] > 100 µM | [15] > 100 µM | [16] > 100 µM | [17] > 100 µM | [18] > 100 µM

CCOc1cc(C2SCC(=O)N2c2nc3cc4sc(N5C(=O)CSC5c5ccc(O)c(OCC)c5)nc4cc3s2)ccc1O (configuration not stated)
inactive: [1] 48.6 µM | [19] > 50.7 µM | [2] 4.16 µM | [3] 4.8 µM | [4] 17.8 µM | [5] 67.3 µM | [6] > 100 µM | [7] 20.9 µM | [8] 61.2 µM | [9] 45.3 µM | [10] 2.37 µM | [11] 20.4 µM | [12] 48.4 µM | [13] 58.5 µM | [14] 59.2 µM | [20] 41.3 µM | [15] 5.85 µM | [16] > 100 µM | [18] 98.6 µM

O=C(Cn1c(=O)oc2ccc(C(=O)c3ccc(F)cc3)cc21)c1ccc([N+](=O)[O-])cc1
inactive: [1] 25.5 µM | [19] 47.6 µM | [2] 19.1 µM | [3] 26.9 µM | [4] 46.7 µM | [6] 15.9 µM | [7] 29.6 µM | [8] 8.2 µM | [9] 22.8 µM | [10] 32.8 µM | [11] 18.8 µM | [12] 25.5 µM | [13] 22.5 µM | [14] 15.7 µM | [20] 47.1 µM | [15] 12.6 µM | [16] 36.6 µM | [17] 60.3 µM | [18] 34.2 µM

COc1cc2c(c(OC)c1)/C(=C/Sc1ccccc1)C(=O)N(C(C)(C)C)C2
inactive: [1] 32.4 µM | [19] 32.7 µM | [2] 29.2 µM | [3] 26.2 µM | [4] > 100 µM | [5] 29.6 µM | [6] 37.8 µM | [7] 16.4 µM | [8] 25 µM | [9] 24.3 µM | [12] 33.1 µM | [13] 22.4 µM | [14] 17.5 µM | [15] 19.8 µM | [16] 54.6 µM | [17] 30.6 µM | [18] 24.3 µM

O=C1NC(Cc2ccc(O)cc2)C(=O)NC1Cc1ccc(O)cc1 (configuration not stated)
inactive: [1] > 100 µM | [19] > 100 µM | [2] > 100 µM | [3] > 100 µM | [4] 24.8 µM | [5] > 100 µM | [7] > 100 µM | [8] > 100 µM | [9] > 100 µM | [10] > 100 µM | [11] > 100 µM | [12] > 100 µM | [13] > 100 µM | [14] > 100 µM | [20] > 100 µM | [15] > 100 µM | [16] > 100 µM | [17] > 100 µM | [18] > 100 µM

N/C(=N/O)c1cn(C2OC(CO)C(O)C2O)c2ncnc(NO)c12 (configuration not stated)
active: [1] 0.425 µM | [2] 0.0165 µM | [3] 0.0771 µM | [4] 0.112 µM | [5] 0.422 µM | [6] 0.147 µM | [7] 0.0337 µM | [8] 0.166 µM | [10] 0.112 µM | [11] 0.0226 µM | [12] 0.265 µM | [13] 0.0621 µM | [14] 0.151 µM | [20] 0.514 µM | [15] 0.0356 µM | [16] 0.0865 µM | [17] 0.224 µM | [18] 0.362 µM

NCC(=O)NC1(C(=O)O)CCCC1 (H-Gly-[Ac5c]-OH)
inactive: [1] > 100 µM | [19] > 100 µM | [3] > 100 µM | [4] > 100 µM | [5] > 100 µM | [6] > 100 µM | [7] > 100 µM | [9] > 100 µM | [10] > 100 µM | [11] > 100 µM | [12] > 100 µM | [13] > 100 µM | [14] > 100 µM | [20] > 100 µM | [15] > 100 µM | [16] > 100 µM | [17] > 100 µM | [18] > 100 µM

COC(=O)C1(O)C(c2ccccc2)=NC2(C)CCCC21 (configuration not stated)
inactive: [1] > 100 µM | [19] > 100 µM | [2] > 100 µM | [3] > 100 µM | [4] > 100 µM | [6] > 100 µM | [7] > 100 µM | [9] > 100 µM | [10] > 100 µM | [11] > 100 µM | [12] > 100 µM | [13] > 100 µM | [14] > 100 µM | [20] > 100 µM | [15] > 100 µM | [16] > 100 µM | [17] > 100 µM | [18] > 100 µM

COC(CN(C(=O)c1ccccc1)C1CCC2(SCCS2)c2[nH]c3ccccc3c21)OC (configuration not stated)
inactive: [1] 46.6 µM | [19] 21 µM | [2] 44.2 µM | [3] 21.9 µM | [4] 93.3 µM | [5] 19.6 µM | [6] 30.5 µM | [7] 32.3 µM | [8] 16.9 µM | [9] 27.5 µM | [10] 33.8 µM | [11] 13.9 µM | [12] 28.2 µM | [13] 18.2 µM | [14] 26 µM | [20] 22.4 µM | [15] 30.4 µM | [16] 32.7 µM | [17] 14.4 µM
